The values below are quoted from earlier work in paper PMC7982506 (Acta Pharmaceutica Sinica. B, 2020).

Series [1] addresses T1, SHP2-WT (Homo sapiens, UniProt Q06124).
T1 sequence (Q06124 1-535): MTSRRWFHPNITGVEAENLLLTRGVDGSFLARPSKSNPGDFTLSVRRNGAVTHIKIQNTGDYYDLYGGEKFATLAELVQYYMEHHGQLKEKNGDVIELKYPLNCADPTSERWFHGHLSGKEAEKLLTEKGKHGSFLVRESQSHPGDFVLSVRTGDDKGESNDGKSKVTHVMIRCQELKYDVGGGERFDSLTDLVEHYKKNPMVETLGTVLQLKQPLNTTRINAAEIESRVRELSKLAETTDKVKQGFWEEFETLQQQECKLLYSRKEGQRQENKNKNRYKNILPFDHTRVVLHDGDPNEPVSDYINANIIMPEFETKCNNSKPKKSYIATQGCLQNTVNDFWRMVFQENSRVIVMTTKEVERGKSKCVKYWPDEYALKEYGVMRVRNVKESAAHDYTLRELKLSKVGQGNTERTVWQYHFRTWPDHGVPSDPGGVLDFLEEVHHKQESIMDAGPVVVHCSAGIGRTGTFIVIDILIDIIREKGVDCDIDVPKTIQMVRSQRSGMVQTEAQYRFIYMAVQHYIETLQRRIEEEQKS
As to conditions: read-out: EC50 of p-IRS1 peptide for SHP2-WT, previously reported.

The target of series [2] is T2, SHP2-PTP (Homo sapiens, UniProt Q06124).
T2 sequence (Q06124 237-535): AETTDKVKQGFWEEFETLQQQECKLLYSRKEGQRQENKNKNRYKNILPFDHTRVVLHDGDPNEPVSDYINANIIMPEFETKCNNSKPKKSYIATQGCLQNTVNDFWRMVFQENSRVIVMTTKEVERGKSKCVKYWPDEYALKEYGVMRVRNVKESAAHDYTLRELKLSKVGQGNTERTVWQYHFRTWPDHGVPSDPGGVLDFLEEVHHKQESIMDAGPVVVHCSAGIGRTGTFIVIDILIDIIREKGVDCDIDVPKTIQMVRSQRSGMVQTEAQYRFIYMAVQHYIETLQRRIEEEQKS
As to conditions: read-out: IC50 reported previously.

Series [3] relates to cell growth. To be noted: versus SHP099.
Series [4] relates to p-ERK. As to conditions: versus SHP099.

“H2N-LN(pY)IDLDLV(dPEG8)LST(pY)ASINFQK-amide [p-IRS1 peptide]”: the concentration giving a half-maximal response (EC50) (in general, the concentration that produces a half-maximal response) in series [1] is 0.25 µM.
Consider `[Na+].[Na+].[Na+].[O]=[V]([O-])([O-])[O-]` [Na3VO4], for which the IC50 (commonly the concentration that inhibits the measured activity by half) in series [2] is 10 µM.
Consider `Cc1ncsc1-c1ccc([C@H](C)NC(=O)[C@@H]2C[C@@H](O)CN2C(=O)[C@@H](NC(=O)CCCCCCCCN2CCN(C(=O)CCC(=O)Nc3cccc(Sc4ncc(N5CCC(C)(N)CC5)nc4N)c3Cl)CC2)C(C)(C)C)cc1` [SHP2-D26], for which the “fold more potent than SHP099 in inhibition of cell growth” value in series [3] is reported as 30 fold. In series [4], the “fold more potent than SHP099 in inhibition of p-ERK” value is on record as 30 fold.
